Here are results for one molecule from patent US9730890B2, “Bronchodilating beta-agonist compositions and methods” (Mylan Specialty L.P., priority 2003, dated 2017).

A short description of the series: Decomposition rate constant (kobs) of formoterol in aqueous solution. The class given is physicochemical. Particulars: for rate constant (kobs) for decomposition: aqueous solution, 60° C., ionic strength 0.05. From the text:
In the embodiments herein, the compositions have a pH of about 2.0 to about 8.0, or 2.0 to 8.0. In other embodiments, the compositions have a pH of about 4.0 to about 6.0, or 4.0 to 6.0. In other embodiments, the pH is about 4.5 to about 5.5, or 4.5 to 5.5. In certain of the above embodiments, the compositions are formulated at a pH of about 4, 4.4 or 4.6 up to about 5.5, 5.7 or 6; or 4, 4.4 or 4.6 up to 5.5, 5.7 or 6. In other embodiments, the pH is about 5.0, or 5.0. […] The rate constant (kobs) at 60° C. at a pH of 3, 4, 5 and 7 is approximately 0.62, 0.11, 0.044 and 0.55 day^-1, respectively.
In other of the above embodiments, the compositions further contain a buffer, including, but not limited to, citric acid/phosphate, acetate, barbital, borate, Britton-Robinson, cacodylate, citrate, collidine, formate, maleate, McIlvaine, phFosphate, Prideaux-Ward, succinate, citrate-phosphate-borate (Teorell-Stanhagen), veronal acetate, MES (2-(N-morpholino)ethanesulfonic acid), BIS-TRIS (bis(2-hydroxyethyl)imino-tris-(hydroxymethyl)methane), ADA (N-(2-acetamido)-2-iminodiacetic acid), ACES (N-(carbamoylmethyl)-2-aminoethanesulfonic acid), PIPES (piperazine-N,N′-bis(2-ethanesulfonic acid)), MOPSO (3-(N-morpholino)-2-hydroxypropanesulfonic acid), BISTRIS PROPANE (1,3-bis(tris(hydroxymethyl)methylamino)propane), BES (N,N-bis(2-hydroxyethyl)-2-aminoethanesulfonic acid), MOPS (3-(N-morpholino)propanesulfonic acid), TES (N-tris(hydroxymethyl)methyl-2-aminoethanesulfonic acid), HEPES (N-(2-hydroxyethyl)-piperazine-N′-(2-eth-anesulfonic acid), DIPSO (3-(N,N-bis(2-hydroxyethyl)amino)-2-hydroxypropan-esulfonic acid), MOBS (4-(N-morpholino)-butanesulfonic acid), TAPSO (3-(N-tris(hydroxymethyl)methylamino)-2-hydroxypropanesulfonic acid), TRIZMA® (tris(hydroxymethylaminomethane), HEPPSO(N-(2-hydroxyethyl)piperazine-N′-(2-hydroxypropanesulfonic acid), POPSO (piperazine-N,N′-bis(2-hydroxypropanesulfonic acid)), TEA (triethanolamine), EPPS (N-(2-hydroxyethyl)piperazine-N′-(3-propanesulfon-ic acid), TRICINE (N-tris(hydroxy-methyl)methylglycine), GLY-GLY (glycylglycine), BICINE (N,N-bis(2-hydroxyethyl)glycine), HEPBS (N-(2-hydroxyethyl)piperazine-N′-(4-butanesulfonic acid)), TAPS(N-tris(hydroxymethyl)methyl-3-aminopropanesulfonic acid), AMPD (2-amino-2-methyl-1,3-propanediol), and/or any other buffers known to those of skill in the art. In one embodiment, the buffer is citric acid/phosphate buffer, acetate buffer, citrate buffer or phosphate buffer. In another embodiment, the buffer is a citrate buffer (citric acid/sodium citrate). […] Buffer concentrations for use include from about 0 or 0.01 mM to about 150 mM, or 0 or 0.01 mM to 150 mM. In another embodiment, the buffer concentration is about 1 mM to about 20 mM, or 1 mM to 20 mM. In one embodiment, the buffer concentration is about 5 mM, or 5 mM. In other embodiments, the buffer concentration is about 1 mM to about 50 mM, or 1 mM to 50 mM. […] The particular buffer and buffer concentration of a given composition for long term storage provided herein may be determined empirically using standard stability assays well known to those of skill in the art (see, e.g., the Examples).
Ionic strengths of the compositions provided herein are from about 0 to about 0.4, or 0 to 0.4. […] The particular ionic strength of a given composition for long term storage provided herein may be determined empirically using standard stability assays well known to those of skill in the art (see, e.g., the Examples). […]

On to `COc1ccc(CC(C)NCC(O)c2ccc(O)c(NC=O)c2)cc1` (racemic) [formoterol, 2-hydroxy-5-((1RS)-1-hydroxy-2-(((1RS)-2-(p-methoxyphenyl)-1-methylethyl)amino)ethyl)formanilide], for which the “rate constant (kobs) for decomposition” value is, setting by setting: (pH 3, buffer concentration 5 mM) “approximately 0.62 day^-1”; (pH 4, buffer concentration 5 mM) approximately 0.11 day⁻¹; (pH 5, buffer concentration 5 mM) approximately 0.044 day⁻¹; (pH 7, buffer concentration 5 mM) approximately 0.55 day⁻¹. Besides, for the setting “pH region of about 4.5 to about 5.5, buffer concentration from 5 mM to 20 mM”, the “effect of buffer concentration on rate constant of decomposition” value is listed as “no noticeable differences in rate constant”.
